Laboratory results taken from publication PMC11859031, “Assessment of the In Vitro Biological Activities of Schiff Base-Synthesized Copper Oxide Nanoparticles as an Anti-Diabetic, Anti-Alzheimer, and Anti-Cancer Agent” (Pharmaceutics, 2025).

Target: bovine serum albumin (BSA) (Bos taurus, UniProt P02769)
Assay: Inhibition of protein denaturation (anti-arthritic)
Details: read-out: Protein Denaturation Inhib. (%)
Procedure: 3.5. Anti-arthritic activity
In the anti-arthritic activity study, this assay involved determining the percentage of […]
anti-inflammatory drug, as prepared according to Meera et al. The protein denaturation percentage was measured by mixing 0.5mL of the test control solution, prepared by combining 0.45 mL of bovine serum albumin (BSA) (5% w/v aqueous solution) with 0.05 mL of distilled water. Then, 0.05 mL of the test solution was added to 0.45 mL of distilled water to form the product control (0.5 mL). The […]
pH value in all prepared solutions was adjusted to 6.3 using HCl (1N). All the samples were incubated at 37 °C for 20 min, and the temperature was then increased to 57 °C, maintaining the samples at that degree for 3 min. After cooling, 2.5 mL of phosphate buffer was added to the prepared solutions. The absorbance was […]
protein denaturation inhibition can be calculated. Proteinase inhibitory activity was assessed by combining the test sample (1 mL) with a reaction mixture containing 0.06 mg trypsin dissolved in 1 mL of 20 mM Tris HCl buffer (pH 7.4). The mixture was then incubated for 5 minutes at 37°C, followed by the addition of 1 mL of casein (0.8% w/v). […] The cloudy suspension was then centrifuged, and the absorbance of the supernatant was measured at 210 nm against buffer as the blank. The percentage of proteinase inhibitory activity was then calculated. […]

bovine serum albumin (BSA), sequence (P02769 25-607): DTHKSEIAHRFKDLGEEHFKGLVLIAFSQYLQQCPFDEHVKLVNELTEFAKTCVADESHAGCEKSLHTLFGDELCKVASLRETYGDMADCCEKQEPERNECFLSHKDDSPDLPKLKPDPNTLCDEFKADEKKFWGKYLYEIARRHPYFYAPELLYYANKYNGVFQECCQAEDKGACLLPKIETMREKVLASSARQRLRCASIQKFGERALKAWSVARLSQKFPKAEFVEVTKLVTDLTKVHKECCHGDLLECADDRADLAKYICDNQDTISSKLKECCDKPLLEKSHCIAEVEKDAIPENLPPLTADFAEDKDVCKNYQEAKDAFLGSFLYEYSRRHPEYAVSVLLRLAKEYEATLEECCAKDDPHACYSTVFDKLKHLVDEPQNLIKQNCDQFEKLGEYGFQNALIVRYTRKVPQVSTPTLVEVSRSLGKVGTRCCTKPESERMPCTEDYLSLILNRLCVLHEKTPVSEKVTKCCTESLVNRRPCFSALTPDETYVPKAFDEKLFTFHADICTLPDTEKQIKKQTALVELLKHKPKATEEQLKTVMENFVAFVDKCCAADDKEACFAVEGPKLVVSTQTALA

Cc1nn(-c2ccccc2)c(Cl)c1C=NN=C1C(=O)Nc2ccccc21 [SB]
inhibition at 100 µg/mL: 26.11 ± 0.13%
